Three compounds from US11059846B2, “Immune stimulating compound” (ISR IMMUNE SYSTEM REGULATION HOLDING AB (PUBL), priority 2017, dated 2021) can be followed below.

For series [1], the target named is T1, human TLR2 (Homo sapiens, UniProt O60603).
T1 construct: host or cells: recombinant HEK-293-TLR cell lines
In words: TLR2 reporter assay (HEK-293-TLR cells, SEAP reporter). The format is cell-based. The settings on record: compound 1 down to 5 μM; others up to 20 μM. How it is done:
These cell lines functionally over-express human TLR2 protein as well as a reporter gene which is a secreted alkaline phosphatase (SEAP). The production of this reporter gene is driven by an NFkB inducible promoter. […] 20 μl of each test article were used to stimulate the hTLR2 reporter cell lines in a 200 μl of final reaction volume. Samples were tested in duplicate, with at least two concentrations tested −20 μM and 10 μM.
Compounds were tested using a TLR2 reporter assay (see general methods) that measured for stimulation of the TLR2 receptor.

Series [2] relates to CMV specific CD8+ T cells. As to the kind of experiment: CMV cultures: phenotype of CMV specific CD8+ T cells. The format is cell-based, Human. As to conditions: CMV antigen, 6 days. How it is done: FIG. 8. Upregulation of IL-7 receptor a (CD127) on CMV specific CD8 T cells after incubation with compound 1, measured with flow cytometry.
Human peripheral blood mononuclear cells (PBMCs) were purified from healthy CMV positive donors with Ficoll-Paque density centrifugation. The PBMC were labeled with 5 μM celltrace violet (Invitrogen) in PBS for 15 minutes and then washed with complete cell culture medium. The labeled PBMC was cultured in the presence of a peptide library spanning the CMV pp65 protein (1 μg peptide/ml, JPT) in AIM-V media (Invitrogen) supplemented with L-glutamine, Sodium pyruvate (Sigma), 10% fetal bovine serum, 100 μg/mL penicillin and 100 μg/mL streptomycin (Hyclone) for 6-8 days in 37° C., 5% CO2. Cell proliferation was assessed with flow cytomtery using a BD FACS Canto II flow cytometer.
Study 7: CMV virus specific T cell proliferation was also affected by compound 1. […] CD127 is crucial for T cell homeostasis, differentiation and function, and reduced expression correlates with disease severity in HIV and other chronic viral diseases (Crawley et al Sem Imm 2012).

For series [3], the system named is C57bl/6 mice. As to the kind of experiment: MHC class I expression on CD11b+ splenocytes of mice after i.v. injection, flow cytometry. The series is classed as in vivo. As to conditions: spleen removed 24 h later. The method, then: FIG. 15: % MHC class I high CD11b+ cells in spleen of 3 individual C57bl/6 mice injected 24 h previously with indicated compound. MHC class I and CD11b expression was measured by flow cytometry.
Study 14: Compound 1 or 2 was administered i.v. to C57bl/6 mice.

Series [4] relates to C57bl/6 mice. In words: CD25 high cells in blood of mice after i.v. injection, flow cytometry. The format is in vivo. How it is done: FIG. 14: % CD25 high cells in blood of C57bl/6 mice injected 24 h previously with indicated dose of compound 1. CD25 expression was measured by flow cytometry.
Study 13: Compound 1 was administered i.v. to C57bl/6 mice at 0.165 mg/kg to 5 mg/kg. CD25+ cell abundance was increased in animals receiving the highest dose of 5 mg/kg (FIG. 14), as was body weight in the same group (not shown).

The test system of series [5] is PBMCs. In words: Cytokine/chemokine secretion from PBMC, cytometric bead assay. The series is classed as cell-based. As to conditions: 2 days. How it is done: (§1) FIG. 11: Chemokine RANTES secretion (as measured by cytometric bead assay) from PBMC or macrophages stimulated with indicated compound for 48 h.
(§2) FIG. 12: IL12p70 secretion (as measured by cytometric bead assay) from PBMC or macrophages stimulated with indicated compound for 48 h.
(§3) FIG. 13: IL1b secretion (as measured by cytometric bead assay) from PBMC, macro-phages or CD4 T cells stimulated with indicated compound for 48 h.
(§4) Study 10: PBMCs and macrophages where exposed to compounds 1 or 2 for 2 days (FIG. 11).
(§5) Study 11: PBMCs and macrophages where exposed to compounds 1 and 2 for 2 days.
(§6) Study 12: PBMCs, macrophages and CD4+ T cells where exposed to compounds 1 and 2 for 2 days.

The test system of series [6] is Macrophages from healthy donors. As to the kind of experiment: Cytokine/chemokine secretion from macrophages, cytometric bead assay. The series is classed as cell-based. As to conditions: 2 days. How it is done: FIG. 10: Interferon-gamma secretion (as measured by cytometric bead assay) from macrophages stimulated with indicated compound for 48 h.
as §1, §2, §3
Study 9: Macrophages from healthy donors where exposed to compounds 1 or 2 for 48 hours. […] Compound 1 is therefore able to induce IFN-gamma secretion in macrophages from healthy donors.
as §4, §5, §6

For series [7], the system named is Human peripheral blood mononuclear cells (PBMCs). In words: Marker expression on PBMC by flow cytometry. The format is cell-based. The settings on record: 24 h. How it is done:
Human peripheral blood mononuclear cells (PBMCs) were purified from healthy donors with Ficoll-Paque density centrifugation. Cells were cultured in complete RPMI-1640 media (Invitrogen) supplemented with 25 mM HEPES, L-glutamine, Sodium pyruvate (Sigma), 10% fetal bovine serum, 100 μg/mL penicillin and 100 μg/mL streptomycin (Hyclone) for 24-72 hours in 37° C., 5% CO2 and stimulated with and increasing concentrations of compound 1 and 2. Cells were then washed in PBS and stained with monoclonal antibodies specific for cell surface markers (BD Pharmingen) and analysed with flow cytomtery using a BD FACS Canto II flow cytometer. All samples were tested in duplicates.
Human peripheral blood mononuclear cells (PBMCs) were purified from healthy donors with Ficoll-Paque density centrifugation. Cells were cultured in complete RPMI-1640 medium (Invitrogen) supplemented with 25 mM HEPES, L-glutamine, Sodium pyruvate (Sigma), 10% fetal bovine serum, 100 μg/mL penicillin and 100 μg/mL streptomycin (Hyclone). Cells were stimulated for 24 h (study 1-4) or 48 h to 1 week (study 5) in 37° C., 5% CO2 with increasing concentrations of compound 1 and 2 in tissue culture plates. The cells were removed from the plate, washed in PBS and analysed for expression of cell specific surface markers and MHC class I with flow cytometry using monoclonal antibodies from BD Pharmingen and a FACS Canto II flow cytometer.

Series [8] relates to Monocytes differentiated into macrophages. As to the kind of experiment: CD80 expression on monocytes differentiated into macrophages, flow cytometry. As to conditions: 24 h. The series is classed as cell-based, Human.
The test system of series [9] is PBMCs from CMV infected donors. In words: IFN-gamma secretion from PBMCs of CMV infected donors with CMV antigen, cytometric bead assay. As to conditions: 3 days. The series is classed as cell-based, Human. The text has this:
FIG. 9: Interferon-gamma secretion (as measured by cytometric bead assay) from PBMCs (from a CMV+ donor) grown with CMV peptides in the presence or absence of compound 1 or 2 for 5 days.
Study 8: PBMCs from CMV infected donors cultured in the presence of CMV antigen where either untreated or exposed to compound 1 or compound 2 for 3 days.

For series [10], the system named is CD4+ T cells. As to the kind of experiment: IL-1beta secretion from CD4+ T cells, cytometric bead assay. The settings on record: 2 days. The format is cell-based. How it is done: as §3, §6

T1 sequence (O60603 21-784): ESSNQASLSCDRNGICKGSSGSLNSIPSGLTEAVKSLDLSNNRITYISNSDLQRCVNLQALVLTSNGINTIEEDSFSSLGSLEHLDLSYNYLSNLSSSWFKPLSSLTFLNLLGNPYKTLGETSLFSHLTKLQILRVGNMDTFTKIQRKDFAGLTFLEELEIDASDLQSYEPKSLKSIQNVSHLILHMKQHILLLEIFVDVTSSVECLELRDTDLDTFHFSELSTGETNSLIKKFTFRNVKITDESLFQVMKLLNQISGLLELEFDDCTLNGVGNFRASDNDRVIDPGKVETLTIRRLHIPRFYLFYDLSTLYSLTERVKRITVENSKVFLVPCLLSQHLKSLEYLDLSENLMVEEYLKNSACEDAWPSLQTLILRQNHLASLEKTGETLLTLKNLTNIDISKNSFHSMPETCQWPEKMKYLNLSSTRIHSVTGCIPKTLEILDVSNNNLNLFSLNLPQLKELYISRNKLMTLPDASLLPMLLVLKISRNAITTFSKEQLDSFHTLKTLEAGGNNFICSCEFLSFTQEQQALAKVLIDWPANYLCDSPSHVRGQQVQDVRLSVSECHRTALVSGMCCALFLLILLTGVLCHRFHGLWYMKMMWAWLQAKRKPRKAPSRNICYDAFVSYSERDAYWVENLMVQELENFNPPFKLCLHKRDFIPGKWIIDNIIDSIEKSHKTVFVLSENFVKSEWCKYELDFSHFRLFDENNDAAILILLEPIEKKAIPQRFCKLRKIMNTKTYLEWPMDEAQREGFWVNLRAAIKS

As for `CC[C@H]1OC(=O)[C@H](C)[C@@H](O[C@H]2C[C@@](C)(OC)[C@@H](O)[C@H](C)O2)[C@H](C)[C@@H](O[C@@H]2O[C@H](C)C[C@H](N(C)C)[C@H]2O)[C@](C)(O)C[C@@H](C)CN(C)[C@H](C)[C@@H](O)[C@]1(C)O` [Azithromycin], the “stimulation of TLR2 (in words)” value in series [1] was “little or no stimulation”.

Take `CC[C@H]1OC(=O)[C@H](C)[C@@H](O[C@H]2C[C@@H](N(C)C)[C@H](O)[C@@H](C)O2)[C@H](C)[C@@H](O)[C@](C)(O)C[C@@H](C)CN(C)[C@H](C)[C@@H](O)[C@]1(C)O` [Compound 1]: the “expression of IL-7 receptor a (CD127) on activated CMV specific CD8+ T cells” value in series [2] is “increased expression”. In series [3], the “splenocyte cells (CD11b+) with high MHC I expression” value is reported as “increase”. Moreover, the body weight result in [4] (5 mg/kg group (not shown)) is on record as “increased”. In addition, in series [4] (highest dose of 5 mg/kg, 24 h), the “CD25+ cell abundance in blood” value was “increased”. In addition, in series [5], the “IL-1beta secretion in PBMCs” value was “slightly” and the “RANTES expression in PBMCs” value was “twofold upregulation”. Also, the “stimulation of TLR2 (in words)” value in series [1] is “stimulated TLR2”. Moreover, in [6], the “IL-1beta secretion in macrophages” value was “increased” and the “RANTES expression in macrophages” value is on record as “high expression”. Also, in series [7] (1 μM), the “CD69 expression on B cells” value is given as “upregulated” and the “CD69 expression on CD4+ T cells” value is “upregulated”. Further, in series [7], the “CD80 expression on monocytes” value is reported as “upregulation”, the “MHC class I (HLA-ABC) expression on B-cells” value was “upregulation”, the “MHC class I (HLA-ABC) expression on T-cells” value is “upregulation” and the “MHC class II (HLA-DR) expression on monocytes” value is listed as “upregulation”. In addition, in series [8], the “CD80 expression on macrophages” value was “upregulated”. For the same compound, the IFN-gamma secretion result in series [9] is listed as “induced secretion of high levels”. In series [10], the “IL-1beta secretion in CD4+ T cells” value was “no IL-1beta was induced”.

In the case of `CC[C@H]1OC(=O)[C@H](C)[C@@H](O[C@H]2C[C@@](C)(OC)[C@@H](O)[C@H](C)O2)[C@H](C)[C@@H](O[C@@H]2O[C@H](C)C[C@H](N(C)C)[C@H]2O)[C@](C)(O)C[C@@H](C)C(=O)[C@H](C)[C@@H](O)[C@]1(C)O` [Erythromycin], in series [1], the “stimulation of TLR2 (in words)” value is listed as “little or no stimulation”.
